# Reference: ChEMBL document CHEMBL5625209, “Rational design and optimization of acylthioureas as novel potent influenza virus non-nucleoside polymerase inhibitors” (Eur J Med Chem, 2023)
# Activity calls are given as the source filed them. The rule behind the calls is not given here.
# Legend:
# [1] = tested on: Influenza A virus; test: Antiviral activity against Influenza A virus H1N1 (A/Puerto Rico/8/34) infected in MDCK cells assessed as reduction in virus-induced cytopathic effect incubated for 48 hrs by CCK8 assay; type: functional, organism-based
# [2] = Cytotoxicity against MDCK cells by CCK-8 assay; type: toxicity, cell-based, Canis lupus familiaris; conditions: dog
# [3] = Selectivity index, ratio of CC50 for MDCK cells to EC50 for antiviral activity against Influenza A virus H1N1 (A/Puerto Rico/8/34) infected in MDCK cells; type: toxicity, cell-based; conditions: dog, read-out: Ratio CC50/EC50
# [4] = tested on: Influenza B virus; test: Antiviral activity against influenza B virus B/Yamagata/16/88 infected in MDCK cells; type: functional, organism-based; conditions: B/Yamagata/16/88, MDCK
# [5] = tested on: Influenza B virus; test: Antiviral activity against influenza B virus Victoria/2/87 infected in MDCK cells; type: functional, organism-based; conditions: Victoria/2/87, MDCK
Compound,Activity [1],CC50 [2],selectivity ratio [3],EC50 [1],EC50 [4],EC50 [5]
COc1ccc(C(=O)NC(=S)Nc2ccc(NC(C)=O)cc2)cc1,inactive,–,–,–,–,–
CC(=O)N[C@H]1[C@H]([C@H](O)[C@H](O)CO)OC(C(=O)O)=C[C@@H]1N=C(N)N [ZANAMIVIR],–,> 100000 nM,> 1540,–,–,–
CC(C)(C)c1ccc(C(=O)NC(=S)Nc2ccccn2)cc1,–,> 100000 nM,> 314,319 nM,–,–
CC(C)(C)c1ccc(C(=O)NC(=S)Nc2cc(Br)cc(Br)c2)cc1,–,70900 nM,111,640 nM,–,–
CC(C)(C)c1ccc(C(=O)NC(=S)Nc2ccc(NC(=O)c3ccccc3)cc2)cc1,–,77200 nM,19300,4 nM,700 nM,600 nM
CC(C)(C)c1ccc(C(=O)NC(=S)Nc2ccc3ccccc3n2)cc1,–,91700 nM,110,830 nM,–,–
CC(C)(C)c1ccc(C(=O)NC(=S)Nc2ccc(F)cc2F)cc1,–,95700 nM,133,720 nM,–,–
CCCCc1ccc(C(=O)Nc2ccc(NC(=S)NC(=O)c3ccc(C(C)(C)C)cc3)cc2)cc1,–,> 100000 nM,> 12500,8 nM,–,–
CC(C)(C)c1ccc(C(=O)NC(=S)Nc2ccccc2Br)cc1,–,85100 nM,2660,32 nM,–,–
CC(C)(C)c1ccc(C(=O)NC(=S)Nc2c(Br)cc(Br)cc2Br)cc1,–,60700 nM,169,360 nM,–,–
CC(C)(C)c1ccc(C(=O)NC(=S)Nc2ccc(NC(=O)c3ccc(F)cc3)cc2)cc1,–,> 100000 nM,> 3700,27 nM,–,–
CC(=O)Nc1ccc(NC(=S)NC(=O)c2cccs2)cc1,–,52200 nM,21.4,2440 nM,–,–
CC(=O)Nc1ccc(NC(=S)NC(=O)c2ccc(C(C)C)cc2)cc1,–,46900 nM,4.2,11200 nM,–,–
Cc1ccc(NC(=S)NC(=O)c2ccc(C(C)(C)C)cc2)c(Br)c1,–,41100 nM,1280,32 nM,3200 nM,6200 nM
CC(C)(C)c1ccc(C(=O)NC(=S)Nc2ccccc2F)cc1,–,> 100000 nM,> 2220,45 nM,–,–
CC(=O)Nc1ccc(NC(=S)NC(=O)c2ccc(N(C)C)cc2)cc1,inactive,–,–,–,–,–
COc1ccccc1C(=O)Nc1ccc(NC(=S)NC(=O)c2ccc(C(C)(C)C)cc2)cc1,–,72200 nM,2670,27 nM,–,–
COc1cccc(C(=O)NC(=S)Nc2ccc(NC(C)=O)cc2)c1,inactive,–,–,–,–,–
CC(C)(C)c1ccc(C(=O)NC(=S)Nc2ccc(F)cc2)cc1,–,> 100000 nM,> 164,610 nM,–,–
CC(=O)Nc1ccc(NC(=S)NC(=O)c2ccc(Cl)cc2)cc1,inactive,–,–,–,–,–
CC(C)(C)c1ccc(C(=O)NC(=S)Nc2ccc(NC(=O)c3ccc(Cl)cc3)cc2)cc1,–,> 100000 nM,> 33300,3 nM,300 nM,900 nM
CC(C)(C)c1ccc(C(=O)NC(=S)Nc2ccc(C(F)(F)F)cc2C(F)(F)F)cc1,–,74300 nM,165,450 nM,–,–
CC(C)(C)c1ccc(C(=O)NC(=S)Nc2ccc(-n3cncn3)cc2)cc1,–,54000 nM,77.1,700 nM,–,–
COc1ccccc1NC(=S)NC(=O)c1ccc(C(C)(C)C)cc1,–,> 100000 nM,> 909,110 nM,–,–

Compound,Activity [1],CC50 [2],selectivity ratio [3],EC50 [1],EC50 [4],EC50 [5]
CC(=O)Nc1ccc(NC(=S)NC(=O)c2ccccc2)cc1,inactive,–,–,–,–,–
CCCc1ccc(C(=O)Nc2ccc(NC(=S)NC(=O)c3ccc(C(C)(C)C)cc3)cc2)cc1,–,> 100000 nM,> 100000,1 nM,–,–
CC(C)(C)c1ccc(C(=O)NC(=S)Nc2c(Br)cccc2Br)cc1,–,70900 nM,417,170 nM,–,–
CC(=O)Nc1ccc(NC(=S)NC(=O)c2ccc(C(C)(C)C)cc2)cc1,–,50000 nM,200,250 nM,–,–
COc1cccc(C(=O)Nc2ccc(NC(=S)NC(=O)c3ccc(C(C)(C)C)cc3)cc2)c1,–,72200 nM,3140,23 nM,–,–
Cc1ccccc1NC(=S)NC(=O)c1ccc(C(C)(C)C)cc1,–,> 100000 nM,> 2630,38 nM,–,–
Cc1ccc(C(=O)Nc2ccc(NC(=S)NC(=O)c3ccc(C(C)(C)C)cc3)cc2)cc1,–,> 100000 nM,> 3700,27 nM,–,–
CCCCCc1ccc(C(=O)Nc2ccc(NC(=S)NC(=O)c3ccc(C(C)(C)C)cc3)cc2)cc1,–,77200 nM,7720,10 nM,–,–
CC(C)(C)c1ccc(C(=O)NC(=S)Nc2ccc(N)cc2)cc1,–,100000 nM,4170,24 nM,1900 nM,4900 nM
CC(C)(C)C(=O)Nc1ccc(NC(=S)NC(=O)c2ccc(C(C)(C)C)cc2)cc1,–,81000 nM,5400,15 nM,–,–
COc1ccc(C(=O)Nc2ccc(NC(=S)NC(=O)c3ccc(C(C)(C)C)cc3)cc2)cc1,–,72200 nM,24100,3 nM,300 nM,400 nM
CC(C)(C)c1ccc(C(=O)NC(=S)Nn2cnnc2)cc1,–,65900 nM,74.9,880 nM,–,–
CC(C)(C)c1ccc(C(=O)NC(=S)Nc2cccc(F)c2)cc1,–,50500 nM,555,91 nM,–,–
CC(=O)Nc1ccc(NC(=S)NC(=O)c2cc3ccccc3s2)cc1,–,90200 nM,334,270 nM,–,–
CC(C)(C)c1ccc(C(=O)N2C(=O)CN(c3ccccc3F)C2=S)cc1,–,25400 nM,7.1,3600 nM,–,–
CC(C)(C)c1ccc(C(=O)NC(=S)Nc2ccc(NC(=O)c3ccc(Br)cc3)cc2)cc1,–,> 100000 nM,> 12500,8 nM,–,–
CC(=O)Nc1ccc(NC(=S)NC(=O)c2ccccc2Cl)cc1,inactive,–,–,–,–,–
CC(C)(C)c1ccc(C(=O)NC(=S)Nc2c(Cl)cc(Cl)cc2Cl)cc1,–,80200 nM,167,480 nM,–,–
CC(C)(C)c1ccc(C(=O)NC(=O)Nc2ccccc2F)cc1,–,97900 nM,> 667,150 nM,–,–
Cc1ncn(-c2ccc(NC(=S)NC(=O)c3ccc(C(C)(C)C)cc3)cc2)n1,–,52700 nM,3.1,16900 nM,–,–
CCc1ccc(C(=O)Nc2ccc(NC(=S)NC(=O)c3ccc(C(C)(C)C)cc3)cc2)cc1,–,> 100000 nM,> 100000,1 nM,–,–
CC(C)(C)c1ccc(C(=O)NC(=S)Nc2ccccc2Cl)cc1,–,48000 nM,1330,36 nM,–,–
Cc1ccc(NC(=S)NC(=O)c2ccc(C(C)(C)C)cc2)c(C)c1,–,97900 nM,2220,44 nM,–,–
O=C(NC(=S)Nc1ccccc1F)c1cc2ccccc2s1,–,> 100000 nM,> 10,10000 nM,–,–
